The source of these data is patent US6749804B2, “Process for treating animal habitats” (H & S Chemical Company, Inc., priority 2000, dated 2004).

In one assay the test system is chickens. Put plainly: Chicken grow out in 20,000 Ft^2 poultry house. It counts as in vivo. As to the method:
(§1) The present invention is illustrated by the following Examples however, these Examples are not to be construed as limiting the invention.
3. (Prior art) A poultry house was prepared by cleaning out the used animal bedding (shaved wood chips) The poultry house was then sprayed with a maximum formulation of formaldehyde. After a 72 hour drying period new shaved wood chips were spread in the poultry house and stocked with 19,000 thousand chickens, temperature of the house was maintained at 74% F±4 degrees F. for the term of the grow out. The terms of the grow out was 45 days, average moisture content in the bedding was maintained below 14%. Average relative humidity in the house atmosphere ranged from 40% to 84%.
After two weeks, 200 pounds of alum (aluminum sulfate) was spread evenly on top of the shaved wood chips and dispersed throughout.
7. A poultry house was prepared by using used bedding material. The used animal bedding (shaved wood chips) and manure had been in use for 18 months without removal. A direct spray on application consisting of a solution of one pound of TCM per 125 gallons of water or 100 ppm was sprayed on top of the used animal bedding. 19,000 young chickens were placed in the poultry house. The average temperature of the house was maintained at 78 degrees F. for the term of the grow out. Average moisture content in the bedding was maintained below 14%. The term of the grow out was 39 days.

A further assay has as its system poults (turkeys). Put plainly: Turkey grow out in 20,000 Ft^2 poultry house. It counts as in vivo. How it is done: as §1
4. (Prior art) a poultry house was prepared by cleaning out the used animal bedding (shaved wood chips). The poultry house was then sprayed with a maximum formulation of formaldehyde. After a 72 hour drying period, new shaved wood chips were spread in the poultry house and stocked with 15,000 thousand poults (turkeys). The temperature of the house was maintained at 74°% F±4 degrees F. for the term of the grow out. The term of the grow out was 100 days, average moisture content in the bedding was maintained below 14%. Average relative humidity in the house atmosphere ranged from 40% to 84%.
After two to three weeks, 200 pounds of alum (or aluminum sulfate) was spread evenly on top of the shaved wood chips and dispersed throughout.
5. A poultry house was prepared by spraying all house surfaces (ceiling, walls, and padding/floor) with a solution of 2 pounds of 18.7% formulated TCM per 300 gallons of water. The concentration of the TCM for the washdown was 200 ppm. 12,000 young poults (turkeys) were then placed in the poultry house for a 100-day grow out. The average temperature of the house was maintained at 78° F.±4 degrees for the term of the grow out. The bedding material used was shaved wood chips. Average moisture content in the bedding was maintained below 14%. Average humidity in the house atmosphere ranged from 40% to 68%. The term of the grow out was 100 days.
6. A poultry house was prepared by spraying all house surfaces (ceiling, walls, and padding) after a complete cleanout of previous used wood shavings and manure, with a solution of 2 pounds of 18.7% TCM formulation to 300 gallons of water. The concentration of TCM for the washdown was 200 ppm. 6000 young poults (turkeys) were placed on 3 tons of fresh shaved wood chips in the poultry house. A direct spray-on application of the TCM formulation was sprayed on the new wood shavings and allowed to dry. The solution consisted of 1 pound of formulated TCM to 125 gallons of water or 100 ppm. The average temperature inside the poultry house was maintained at 80 degrees±4 degrees F. for the term of the grow out. Average moisture content in the bedding was maintained below 14%. Average relative humidity in the house atmosphere ranged from 50% to 85%. The term of the grow out was 100 days. The poultry house was retreated via a direct spray-on of the formulated TCM was applied to the bedding material at week 10 of the grow out period for the same batch of turkey poults. The concentration of the TCM in solution was 1 pound of formulated TCM per 125 gallons of water.

Assay [1] deals with hog waste total bacterial content. The experiment in a line: Percent kill in hog waste mixed with TCM solutions. It counts as cell-based. As to the method: 9. Test were conducted on hog waste, 3 gallons of hog waste feces, urine and spillage were prepared. […] Various solution samples of TCM solutions were prepared and mixed with the 3 gallon samples. The percent kill of these various samples was in accordance with Table III.

A further assay deals with salmonella. The experiment in a line: Feces sample from animal bedding tested for salmonella by independent laboratory. The following applies: Example 8: 190 ppm TCM washdown; 16,000 poults; feces sample at eight weeks. As to the method:
(§2) 8. A turkey house was prepared by spraying all surfaces with a solution of TCM. New wood chip bedding was then applied. The concentration was 10 pounds of TCM in 1,600 gallons of water or 190 ppm., 16,000 young poults (turkeys) were then placed in the poultry house for a 100 day grow out.
(§3) The purpose of this application was to compare e.Coli and salmonella results in a controlled environment as an alternative to formaldehyde, the current sanitizing method used by the poultry industry. At eight weeks of the grow out period after the wash down and the placement of the young poults, a feces sample was acquired from the animal bedding to determine disease levels from both the test poultry house and the control poultry house of Example 1. An independent laboratory tested the two samples.

A further assay deals with Other avian diseases. The experiment in a line: Feces sample from animal bedding tested for other avian diseases. As to conditions: Example 8: 190 ppm TCM washdown; feces sample at eight weeks. As to the method: as §2, §3
For another assay, the system named is e.Coli. Put plainly: Feces sample from animal bedding tested for e.Coli by independent laboratory. The following applies: Example 8: 190 ppm TCM washdown; 16,000 poults; feces sample at eight weeks. As to the method: as §2, §3
Where [2] appears, read: Example 3 (prior art): formaldehyde spray, new wood chips, 200 pounds of alum after two weeks, 19,000 chickens, 45 days.
The mark [3] stands for this setting: Example 4 (prior art): formaldehyde spray, new wood chips, 200 pounds of alum after two to three weeks, 15,000 poults, 100 days.
[4] abbreviates: Example 7: 100 ppm TCM sprayed on 18 month used bedding, 19,000 chickens, 39 days.
Setting [5] is: Example 5: house surfaces sprayed with 200 ppm TCM, 12,000 poults, 100-day grow out.
Where [6] appears, read: Example 6: 200 ppm TCM washdown, 100 ppm spray on new wood shavings, retreated at week 10, 6000 poults, 100 days.

Consider `C=O` [formaldehyde, reference compound], for which, in the assay with chickens (setting [2]), the “average weight gain for the chickens” value was 3.96 pounds, the bird mortality rate is listed as 3.56% and the “percentage of birds condemned at the processing facility” value came to 0.15%. Also, in the assay on poults (turkeys) (setting [3]), the “average weight gain for the turkeys” value came out at 21.8 pounds, the bird mortality rate is 8.1% and the “birds condemned at the processing facility” value is recorded as 2.3%.

In the case of trichloromelamine [TCM], the “PERCENT KILL” value in assay [1] (0.25 oz. in 3 gallons of hog waste) is 99.997%; in assay [1] (0.50 oz. in 3 gallons of hog waste) it was 99.9995%; in assay [1] (0.75 oz. in 3 gallons of hog waste) it was 99.998%; in assay [1] (1.0 oz. in 3 gallons of hog waste), 99.9998%; in assay [1] (2.0 oz. in 3 gallons of hog waste), 99.9996%; in assay [1] (3.0 oz. in 3 gallons of hog waste), more than 99.9998%. The “PERCENT KILL” value in assay [1] (4.0 oz. in 3 gallons of hog waste) is more than 99.9998%. The “salmonella in the animal bedding material” value with salmonella was “no e.Coli or salmonella”. Also, the “weight gains of the chickens versus control poultry house” value in the assay with chickens (Example 7: 100 ppm TCM on used bedding vs control house treated with alum) was “insignificant difference”. Further, the average weight in the assay on chickens (setting [4]) came out at 4 pounds. The same compound registered a bird mortality rate with chickens (setting [4]) of 1.1%. Besides, the “birds condemned at the poultry processing facility” value turned out to be 0.04% in the assay with chickens (setting [4]) and 1.4% with poults (turkeys) (setting [6]). Further, the “other avian diseases in the animal bedding material” value in the assay on Other avian diseases is listed as “not in the TCM test house”. Moreover, the bird mortality is listed as 2.7% in the assay with poults (turkeys) (setting [5]) and 0.7% in the assay on poults (turkeys) (setting [6]). In the assay on poults (turkeys) (setting [5]), the “birds condemned at the processing facility” value was found to be 1.7%. In addition, the “weight gain for the turkeys” value in the assay on poults (turkeys) (setting [5]) came to 24.3 pounds. Moreover, the “weight gain for the birds” value in the assay on poults (turkeys) (setting [6]) is listed as 23.9 pounds. In the assay with e.Coli, the “e.Coli in the animal bedding material” value is listed as “no e.Coli or salmonella”.
